Biological target: T1, truncated form of PTP1B (corresponding to the first 321 amino acids) (Homo sapiens, UniProt P18031)
T1 construct: truncated form of PTP1B (corresponding to the first 321 amino acids); made in house; host or cells: E. coli
T1 sequence (P18031 1-321): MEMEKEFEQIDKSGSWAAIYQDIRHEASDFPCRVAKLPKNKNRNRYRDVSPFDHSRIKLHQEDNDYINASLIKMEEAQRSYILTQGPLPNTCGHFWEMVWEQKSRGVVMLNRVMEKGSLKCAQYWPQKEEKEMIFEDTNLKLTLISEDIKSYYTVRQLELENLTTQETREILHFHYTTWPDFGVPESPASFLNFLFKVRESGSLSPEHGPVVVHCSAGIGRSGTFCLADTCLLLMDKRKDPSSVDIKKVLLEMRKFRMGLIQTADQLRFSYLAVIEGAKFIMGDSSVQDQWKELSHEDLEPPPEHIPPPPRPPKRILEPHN
Experiment: Inhibition of classical PTP1B, p-nitrophenyl phosphate enzyme assay
Type: biochemical
Conditions: substrate p-nitrophenyl phosphate 0.16 to 10 mM; 100 mM sodium acetate pH 5.5; 25° C., 60 minutes; absorbance at 405 nm; read-out: PTP1B K1 values
Method: These compounds were evaluated for biological activity with a truncated form of PTP1B (corresponding to the first 321 amino acids), which was expressed in E. coli and purified to apparent homogeneity using published procedures well-known to those skilled in the art. The enzyme reactions were carried out using standard conditions essentially as described by Burke et al. (Biochemistry 35; 15989-15996 (1996)). The assay conditions were as follows. Appropriate concentrations of the compounds of the invention were added to the reaction mixtures containing different concentrations of the substrate, p-nitrophenyl phosphate (range: 0.16 to 10 mM--final assay concentration). The buffer used was 100 mM sodium acetate pH 5.5, 50 mM sodium chloride, 0.1% (w/v) bovine serum albumin and 5 mM dithiothreitol (total volume […]). The reaction was started by addition of the enzyme and carried out in microliter plates at 25° C. for 60 minutes. The reactions were stopped by addition of NaOH. The enzyme activity was determined by measurement of the absorbance at 405 nm with appropriate corrections for absorbance at 405 nm of the compounds and p-nitrophenyl phosphate. The data were analyzed using nonlinear regression fit to classical Michaelis Menten enzyme kinetic models. Inhibition is expressed as Ki values in μM.

Row | Ki | SMILES
1 | 2 µM | CCSc1nn(-c2ccc(OC)cc2)c(=O)c2c(N)scc12 [Example 2, 7-Amino-4-ethylsulfanyl-2-(4-methoxy-phenyl)thieno[3,4-d]pyridazin-1(2H)-one]
2 | 4 µM | Nc1scc2c1c(=O)oc1ccc3ccccc3c12 [Example 3, 3-Amino4H-naphtho[2,1-b]thieno[3,4-d]pyran-4-one]

— US6169087A, “Modulators of protein tyrosine phosphatases (PTPases)” (Novo Nordisk A/S, priority 1998, dated 2001)
